The record followed here is US10570152B2, “Antibacterial therapeutics and prophylactics” (VYOME BIOSCIENCES PVT. LTD., priority 2015, dated 2020).

Converted amounts (≈) assume the structure as drawn.

The test system of data set [1] is P. acnes CCARM 9010 induced paw inflammation. The data set can be described thus: Anti-inflammatory action in vivo, rat paw edema model. Set-up: species or system Sprague Dawley rats. The settings on record: topical, 24 h post initiation of treatment (32 h post induction). The text has this:
Host inflammation is one of the crucial clinical feature of most of the indications associated with bacterial infections. The inventors used an exemplary compound of the invention (Compound 2) to test the anti-inflammatory effects in vivo using rat paw edema model. Inflammation was induced using one of the opportunistic pathogens Propionibacterium acnes prevalent in implant associated infections. Sprague Dawley rats were used for the study and infection was induced by P. acnes CCARM 9010. An inoculum of 1×10^9 CFU/ml of the heat killed bacteria was injected to the plantar side of the right hind paw (˜2×10^7 CFU/paw) except in sham control where saline was injected. Treatments were initiated 8 h post injection by applying the test formulation of Compound 2 (30 mg) twice daily to the plantar surface of the right hind paw and gently rubbing 50 times with the index finger. Comparators Acnedap (dapsone 5% gel) and adapalene gel (Adaferin®) were applied twice daily and once daily based on clinical prescription dosage. Paw sizes were measured in millimeters using Vernier calipers at the start of the infection, 8 h post infection, and 24 h post initiation of treatment (32 h post induction of inflammation). The change in paw size, due to inflammation, was evaluated as the difference between the paw size measured at each time point and the basal paw size measured immediately before edema induction.

Data set [2] deals with A. baumannii ATCC 1906. Put plainly: MIC by micro broth dilution. Format: cell-based. Particulars: Acinetobacter baumannii, ATCC1906, read-out: Minimum inhibitory concentration (MIC). Put shortly:
(§1)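 Using CLSI guidance, compound is double-diluted in BHI broth and challenged with bacteria from a 0.5 McFarland suspension (about 1.5×10^8 cells/ml) diluted 100 times. After 24 h at 37° C., Alamar blue dye gives the MIC.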

In data set [3] the test system is A. baumannii CCARM 12001. Put plainly: MIC by micro broth dilution. The settings on record: Acinetobacter baumannii, CCARM12001, read-out: Minimum inhibitory concentration (MIC). Format: cell-based. Put shortly:
as §1

The subject of data set [4] is A. baumannii CCARM 12020. The data set can be described thus: MIC by micro broth dilution. The settings on record: Acinetobacter baumannii, CCARM12020, read-out: Minimum inhibitory concentration (MIC). It counts as cell-based. A digest of the protocol:
as §1

Data set [5] deals with E. aerogenes M2-1. The data set can be described thus: MIC by micro broth dilution. It counts as cell-based. Particulars: Klebsiella aerogenes, M21, read-out: Minimum inhibitory concentration (MIC). A digest of the protocol: as §1
Data set [6] has as its system E. aerogenes NCIM 5139. Put plainly: MIC by micro broth dilution. It counts as cell-based. Particulars: Klebsiella aerogenes, NCIM5139, read-out: Minimum inhibitory concentration (MIC). Put shortly:
as §1

Data set [7] concerns E. coli BAA 196. The data set can be described thus: MIC by micro broth dilution. It counts as cell-based. Particulars: Escherichia coli, BAA196, read-out: Minimum inhibitory concentration (MIC). A digest of the protocol: as §1
Data set [8] relates to E. coli MTCC 1687. The data set can be described thus: MIC by micro broth dilution. It counts as cell-based. The settings on record: Escherichia coli, MTCC1687, read-out: Minimum inhibitory concentration (MIC). A digest of the protocol:
as §1

Data set [9] has as its system E. faecium CCARM 5207. The data set can be described thus: MIC by micro broth dilution. Particulars: Enterococcus faecium, CCARM5207, read-out: Minimum inhibitory concentration (MIC). It counts as cell-based. Put shortly:
as §1

The test system of data set [10] is E. faecium NCIM 5421. The data set can be described thus: MIC by micro broth dilution. It counts as cell-based. Particulars: Enterococcus faecium, NCIM5421, read-out: Minimum inhibitory concentration (MIC). A digest of the protocol:
as §1

Data set [11] relates to E. fecalis CCARM 5168. The data set can be described thus: MIC by micro broth dilution. Format: cell-based. The settings on record: read-out: Minimum inhibitory concentration (MIC). A digest of the protocol: as §1
For data set [12], the system named is K. pneumonia ATCC 13883. The data set can be described thus: MIC by micro broth dilution. It counts as cell-based. Particulars: for activity in words: Klebsiella pneumonia (susceptible); for MIC: Klebsiella pneumoniae, ATCC13883, K. pneumonia ATCC 13883, read-out: Minimum inhibitory concentration (MIC). A digest of the protocol:
as §1

Data set [13] concerns P. aeruginosa ATCC 27853. Put plainly: MIC by micro broth dilution. Format: cell-based. The settings on record: Pseudomonas aeruginosa, ATCC27853, read-out: Minimum inhibitory concentration (MIC). Put shortly: as §1
In data set [14] the test system is P. aeruginosa CCARM 2161. The data set can be described thus: MIC by micro broth dilution. Format: cell-based. Particulars: Pseudomonas aeruginosa, CCARM2161, read-out: Minimum inhibitory concentration (MIC). A digest of the protocol:
as §1

The test system of data set [15] is P. aeruginosa CCARM 2204. Put plainly: MIC by micro broth dilution. It counts as cell-based. The settings on record: Pseudomonas aeruginosa, CCARM2204, read-out: Minimum inhibitory concentration (MIC). Put shortly:
as §1

Data set [16] has as its system S. aureus ATCC 43300. The data set can be described thus: MIC by micro broth dilution. Format: cell-based. Particulars: Staphylococcus aureus, ATCC43300; S. aureus ATCC 43300; read-out: Minimum inhibitory concentration (MIC). A digest of the protocol: as §1
The test system of data set [17] is S. aureus CCARM 3505. Put plainly: MIC by micro broth dilution. Particulars: Staphylococcus aureus, CCARM3505, read-out: Minimum inhibitory concentration (MIC). It counts as cell-based. Put shortly: as §1
Data set [18] deals with S. aureus MTCC 6908. The data set can be described thus: MIC by micro broth dilution. Format: cell-based. The settings on record: Staphylococcus aureus, MTCC6908, read-out: Minimum inhibitory concentration (MIC). Put shortly:
as §1

Data set [19] concerns S. epidermidis ATCC 35984. Put plainly: MIC by micro broth dilution. It counts as cell-based. The settings on record: Staphylococcus epidermidis, ATCC35984, read-out: Minimum inhibitory concentration (MIC). Put shortly:
as §1

For data set [20], the system named is S. epidermidis S12-1. Put plainly: MIC by micro broth dilution. Particulars: Staphylococcus epidermidis, S121, read-out: Minimum inhibitory concentration (MIC). It counts as cell-based. A digest of the protocol: as §1
In data set [21] the test system is S. epidermidis S5-2. Put plainly: Sequential ZIB (zone of inhibition) assay for PMMA beads. It counts as cell-based, Staphylococcus epidermidis. The settings on record: SmartSet HV impregnated beads. Here is the method:
S. epidermidis S5-2 cells were grown in Brain Heart Infusion Agar (BHIA) at 37° C. for 24 h. 100 μl of 0.5 McFarland equal bacterial suspension was spread on BHA plates. Drug loaded beads were placed above these plates. Plates were incubated at 37° C. for 24 h. Next day, zone of inhibition (ZOI) the beads were measured following which the beads were placed on fresh BHA plates with bacterial suspension spread and this experiment was continued up to seven days. The drug release pattern was determined by compiling and analyzing the ZOI data of beads on each ZOI cycle up to seven days.

A short description of data set [22]: Drug release assay of compound impregnated Smart set HV. It counts as physicochemical. The settings on record: Smart set HV loaded; PBS buffer (pH 6.8):acetonitrile (9:1), 32° C., 7 days. As for the experimental part: The drug release study with compound 2 and compound 10 were conducted in sample vial containing 1.5 ml of dissolution media i.e., PBS buffer (pH 6.8):acetonitrile (9:1). The sample was kept in incubator rotator at 32° C. at 40 rpm. The release medium was withdrawn at specified interval of time (2 hr, 4 hr, 6 hr, day 1, day 2, day 3, day 4, day 5, day 6, day 7 and replaced by fresh 1.5 ml dissolution medium each time. All the samples were kept at −20° C. till the analysis is done. The measurement of drug release was done by HPLC.

The subject of data set [23] is Gram negative pathogens. Put plainly: MIC interpretations, Gram negative pathogens. Format: cell-based. As for the experimental part:
MIC of DART molecules were determined by micro broth dilution as per CLSI guidelines. Bacterial strains were cultured in Brain Heart Infusion Agar (BHIA) at 37° C. for 24 h. For MIC determination, BHI broth (100 μl) was added to each of the wells of a 96 well plate. 100 μl of broth containing drug was added to the first well (1A to 1H) and thereafter serial (double) dilutions were carried out for up to 10 wells (column 1 to column 10 of the 96 well plate). Bacterial inoculum was prepared by adjusting the bacterial culture turbidity to 0.5 McFarland standard (approximately 1.5×10^8 cells/ml) and further diluted (100 times with sterile BHI broth). Diluted bacterial suspension (100 μl) was added to each well except sterility control wells (column 12 of 96 well plate). The plates were incubated at 37° C. for 24 h. The MIC of the test compound was measured after addition of Alamar blue dye.

For the compound `COc1ccc(-c2ccc3cc(C(=O)O)ccc3c2)cc1C12CC3CC(CC(C3)C1)C2` [Adapalene, adapalene, reference compound], in data set [1], the “Inhibition of inflammation (%) at 24 h post treatment” value is listed as 31.55%.
As for `CC1Sc2c(C(=O)O)c(=O)c3cc(F)c(N4CCN(Cc5ccc([N+](=O)[O-])o5)CC4)cc3n21` (stereo not shown) [Compound 10, 6-Fluoro-1-methyl-7-(4-((5-nitrofuran-2-yl)methyl)piperazin-1-yl)-4-oxo-1H,4H-[1,3]thiazeto[3,2-a]-quinoline-3-carboxylic acid], the MIC in data set [2] was 1 µg/mL (≈ 2.11 µM); in [3], more than 16 µg/mL; in data set [4], 8 µg/mL (≈ 16.9 µM); in data set [5] it was 0.25 µg/mL (≈ 0.527 µM); in data set [6] it was 0.125 µg/mL (≈ 0.263 µM); in data set [7] it was 4 µg/mL (≈ 8.43 µM). In addition, the MIC in data set [8] is 0.13 µg/mL (≈ 0.274 µM); in [9] it was more than 16 µg/mL; in data set [10], 0.125 µg/mL (≈ 0.263 µM); in data set [11], 1 µg/mL (≈ 2.11 µM); in data set [12], 0.25 µg/mL (≈ 0.527 µM); in [13] it was 1 µg/mL (≈ 2.11 µM). Further, the MIC in data set [14] was more than 16 µg/mL; in data set [15], 4 µg/mL (≈ 8.43 µM); in data set [16] it was less than 0.02 µg/mL; in data set [17], 1 µg/mL (≈ 2.11 µM); in [18] it was 0.04 µg/mL (≈ 0.0843 µM); in [19], less than 0.03 µg/mL. The MIC in [20] was found to be 2.25 µg/mL (≈ 4.74 µM). Also, the activity in words entry in data set [12] was “active”. In addition, the “Sequential ZOI” value in data set [21] (Day-1) came out at 2.2 cm; in [21] (Day-2) it was 2 cm; in [21] (Day-3) it was 1.8 cm; in data set [21] (Day-4) it was 1.7 cm; in data set [21] (Day-5), 1.7 cm; in [21] (Day-6) it was 1.6 cm. Also, in [21] (Day-7), the “Sequential ZOI” value is recorded as 1.8 cm. Besides, in data set [22], the “drug release from bone cement in words” value is “sustained release of active over a period of 7 days”.
Turning to `CC1SC2C(C(=O)O)C(=O)c3cc(F)c(N4CCN(CC(=O)c5ccccn5)CC4)cc3N12` (stereo not shown) [Compound 33, 6-Fluoro-1-methyl-4-oxo-7-(4-(2-oxo-2-(pyridin-2-yl)ethyl)piperazin-1-yl)-2a,3-dihydro-1H,4H-[1,3]thiazeto[3,2-a]quinoline-3-carboxylic acid], the MIC in data set [2] was 0.06 µg/mL (≈ 0.128 µM); in [3] it was 16 µg/mL (≈ 34 µM); in data set [4], 4 µg/mL (≈ 8.5 µM); in [5], 0.06 µg/mL (≈ 0.128 µM); in [6] it was 0.0312 µg/mL (≈ 0.0663 µM); in [7] it was 2 µg/mL (≈ 4.25 µM). Moreover, the MIC in data set [8] was less than 0.03 µg/mL; in [9], 8 µg/mL (≈ 17 µM); in [10], 0.125 µg/mL (≈ 0.266 µM); in [11], 0.5 µg/mL (≈ 1.06 µM); in data set [12], 0.06 µg/mL (≈ 0.128 µM); in [13], 0.5 µg/mL (≈ 1.06 µM). Besides, the MIC in [14] is 16 µg/mL (≈ 34 µM); in [15] it was 8 µg/mL (≈ 17 µM); in [16], 0.25 µg/mL (≈ 0.531 µM); in data set [17] it was more than 16 µg/mL; in data set [18] it was 0.25 µg/mL (≈ 0.531 µM); in data set [19] it was 0.13 µg/mL (≈ 0.276 µM). Besides, the MIC in data set [20] is 8 µg/mL (≈ 17 µM); in [23] (Escherichia coli, resistant E. coli (MDR) and E. aerogens), not above 1 µg/mL. In [12], the activity in words entry is on record as “active”. Further, in data set [23] (different resistant strains of P. aeruginosa, A. baumanni), the “bio-activity (MIC) range” value lay in the range of 4 to 16 µg/mL.
With `Nc1ccc(S(=O)(=O)c2ccc(N)cc2)cc1` [Dapsone, dapsone, reference compound], the “Inhibition of inflammation (%) at 24 h post treatment” value in data set [1] came to 43.82%.
